This is an account of results in ChEMBL document CHEMBL4265923, “In vitro and in vivo characterization of a novel, highly potent p53-MDM2 inhibitor” (Bioorg Med Chem Lett, 2018).

The nature of series [1]: Half life in rat liver microsomes. Type of series: ADME, microsome. (In general: Microsomes from liver hold many membrane-bound enzymes, among them those of drug oxidation.)
A short description of series [2]: Intrinsic clearance in rat liver microsomes. Type of series: ADME, microsome.
For series [3], the system named is SJSA-1. The series can be described thus: Antiproliferative activity against human SJSA1 cells after 72 hrs by YO-PRO-1 iodide staining-based assay. In kind it is functional. The note with it: SJSA-1, 72 h.
Series [4] relates to Rattus norvegicus. Kind of series: Upregulation of MDM2 mRNA expression level in po dosed nude rat tumor xenografted with human SJSA1 cells by RT-PCR method.
The nature of series [5]: Half life in mouse liver microsomes. In kind it is ADME, microsome.
The subject of series [6] is Rattus norvegicus. The series can be described thus: Dose normalized AUC in Sprague-Dawley rat at 1 mg/kg, iv. In kind it is ADME, organism-based. The conditions noted are these: in vivo.
Series [7] can be described thus: Half life in dog liver microsomes. In kind it is ADME, Canis lupus familiaris, microsome.
Series [8] can be described thus: Fraction absorbed of compound by PAMPA. In kind it is ADME.
Series [9] has as its system Rattus norvegicus. Kind of series: Toxicity in nude rat xenografted with human SJSA1 cells assessed as increase in body weight at 1 to 5 mg/kg, po qd for 14 days. In kind it is organism-based. The note with it: in vivo, 336 h.
The nature of series [10]: Clearance in Sprague-Dawley rat at 1 mg/kg, iv. The note with it: in vivo. Type of series: ADME, organism-based.
A short description of series [11]: Half life in monkey liver microsomes. In kind it is ADME, Macaca mulatta, microsome. The note with it: rhesus monkey.
Series [12] has as its system Rattus norvegicus. Kind of series: Dose normalized AUC in Sprague-Dawley rat at 3 mg/kg, po. In kind it is ADME, organism-based. The conditions noted are these: in vivo.
The test system of series [13] is Rattus norvegicus. The series can be described thus: Upregulation of p21 mRNA expression level in po dosed nude rat tumor xenografted with human SJSA1 cells by RT-PCR method. In general terms: In xenograft studies the graft and the host belong to different species.
The nature of series [14]: Intrinsic clearance in mouse liver microsomes. In kind it is ADME, microsome.
A short description of series [15]: Tmax in Sprague-Dawley rat at 3 mg/kg, po. The note with it: in vivo. Type of series: ADME, organism-based.
Series [16] is described as follows: Oral bioavailability in Sprague-Dawley rat at 3 mg/kg. The conditions noted are these: in vivo. Type of series: ADME, organism-based.
In series [17] the test system is SJSA-1. Kind of series: Antitumor activity against human SJSA1 cells xenografted in po dosed nude rat assessed as tumor growth inhibition administered once daily for 14 days. Type of series: functional, organism-based.
Series [18] is described as follows: Intrinsic clearance in dog liver microsomes. Type of series: ADME, Canis lupus familiaris, microsome.
Series [19] in a line: Intrinsic clearance in monkey liver microsomes. The note with it: rhesus monkey. In kind it is ADME, Macaca mulatta, microsome.
Series [20] relates to Rattus norvegicus. The series can be described thus: Upregulation of PUMA mRNA expression level in po dosed nude rat tumor xenografted with human SJSA1 cells by RT-PCR method.
Series [21] is described as follows: Intrinsic clearance in human liver microsomes. In kind it is ADME, microsome.
The nature of series [22]: Half life in human liver microsomes. Type of series: ADME, microsome.
A short description of series [23]: Volume of distribution at steady state in Sprague-Dawley rat at 1 mg/kg, iv. In kind it is ADME, organism-based. The note with it: in vivo, read-out: Vdss.
Series [24] has as its system SJSA-1. Kind of series: Antitumor activity against human SJSA1 cells xenografted in nude rat assessed as tumor regression at 3 mg/kg, po qd for 14 days. In kind it is functional.
The subject of series [25] is SJSA-1. The series can be described thus: Antitumor activity against human SJSA1 cells xenografted in nude rat assessed as tumor regression at 5 mg/kg, po qd for 14 days. In kind it is functional.
Series [26] is described as follows: Half life in Sprague-Dawley rat at 1 mg/kg, iv. In kind it is ADME, organism-based. The note with it: in vivo.
Series [27] relates to SJSA-1. The series can be described thus: Antitumor activity against human SJSA1 cells xenografted in nude rat assessed as reduction in tumor volume at 1 mg/kg, po qd for 14 days. In kind it is functional. Also noted: scale not given: the % may be the effect or the level left.
Series [28] relates to Rattus norvegicus. Kind of series: Dose normalized Cmax in Sprague-Dawley rat at 3 mg/kg, po. Type of series: ADME, organism-based. The conditions noted are these: in vivo.
The nature of series [29]: Tmax in nude rat xenografted with human SJSA1 cells at 1 to 5 mg/kg, po qd. In kind it is ADME, organism-based. The conditions noted are these: in vivo.

In series [1], `COc1ccccc1-c1nc2c(n1C(C)C)[C@H](c1ccc(Cl)cc1C)N(c1cc(Cl)ccc1C)C2=O` came in with a half-life of 3.6 min. The compound further came in with a CLint in [2] of 385 µL/min/mg. Further, in the series with SJSA-1 [3], the concentration for 50% growth inhibition (GI50) is 62 to 64 nM.
For the compound `COc1ccncc1-c1nc2c(n1C(C)C)[C@H](c1ccc(Cl)cc1C)N(c1cc(Cl)ccc1C)C2=O`, the half-life in series [1] is 12 min. In addition, the CLint in [2] amounted to 117 µL/min/mg. In the series with SJSA-1 [3], the 50% growth inhibitory concentration (GI50) amounted to 345 nM.
For `COc1cccc(F)c1-c1nc2c(n1C(C)C)C(c1ccc(Cl)cc1C)N(c1cc(Cl)ccc1C)C2=O` (racemic), in that order: 3.3 min, 450 µL/min/mg and 276 nM.
For `COc1ccc(-c2nc3c(n2C(C)C)C(c2ccc(Cl)cc2C)N(c2cc(Cl)ccc2C)C3=O)c(OC)n1` (racemic), in series [1], the half-life was 20 min. For the same compound, the CLint in series [2] came to 69 µL/min/mg. The same compound yielded a 50% growth inhibitory concentration (GI50) in the series on SJSA-1 [3] of 186 nM.
On the same counts, the results for `COc1ccc(F)cc1-c1nc2c(n1C(C)C)C(c1ccc(Cl)cc1C)N(c1cc(Cl)ccc1C)C2=O` (racemic) are 3.3 min, 460 µL/min/mg and 228 nM.
For `COc1ncncc1-c1nc2c(n1C(C)C)C(c1ccc(Cl)cc1C)N(c1cc(Cl)ccc1C)C2=O` (racemic), in that order: 8 min, 178 µL/min/mg and 111 nM.
On the same counts, the results for `COc1ncc(-c2nc3c(n2C(C)C)[C@@H](c2ccc(Cl)cc2C)N(c2cc(Cl)ccc2C)C3=O)c(OC)n1` are 56 min, 25 µL/min/mg and 1000 nM.
Regarding `COc1ncc(-c2nc3c(n2C(C)C)[C@H](c2ccc(Cl)cc2C)N(c2cc(Cl)ccc2C)C3=O)c(OC)n1`, the half-life in [1] was 39 min; in [5] it was 39 min; in series [7], 40 min; in [11], 81 min; in series [22] it was 17 min; in series [26], 108 min. Besides, the Activity result with Rattus norvegicus [4] is “Dose-dependent effect”; with Rattus norvegicus [9] it was “Non-Toxic”; in the series on Rattus norvegicus [13] it was “Dose-dependent effect”; in the series on Rattus norvegicus [20], “Dose-dependent effect”; with SJSA-1 [24], 32%; with SJSA-1 [25] it was 98%. Also, the Activity in the series with SJSA-1 [27] was determined as 40%. Besides, the AUC/dose worked out at 1080 nM·h in the series on Rattus norvegicus [6] and 719 nM·h in the series with Rattus norvegicus [12]. In series [8], the Fa was 99%. Further, the clearance in [10] was 32 mL/min/kg. Moreover, the CLint in [2] was found to be 35 µL/min/mg. Besides, the GI50 in the series on SJSA-1 [3] is 11 nM. The CLH in series [14] was determined as 36 µL/min/mg; in series [18], 35 µL/min/mg; in [19] it was 20 µL/min/mg; in [21], 72 µL/min/mg. Moreover, the Tmax was 120 min in series [15] and 180 min in series [29]. The bioavailability in [16] came out at 67%. Further, the TGI entry with SJSA-1 [17] is “Dose-dependent effect”. Also, in [23], the Vd amounted to 4.4 L/kg. Also, in the series on Rattus norvegicus [28], the Cmax/dose is 75 nM/(mg/kg).
As for `COc1ccccc1-c1cc2c(n1C(C)C)C(c1ccc(Cl)cc1C)N(c1cc(Cl)ccc1C)C2=O` (configuration not stated), in the series with SJSA-1 [3], the GI50 was 216 nM.
With `COc1ccccc1-n1nc2c(c1C(C)C)[C@H](c1ccc(Cl)cc1C)N(c1cc(Cl)ccc1C)C2=O`, in series [2], the CLint came out at 385 µL/min/mg. Besides, the CLH in series [14] was 495 µL/min/mg; in [21], 115 µL/min/mg.
On to `COc1ncc(-c2nc3c(n2C(C)C)C(c2ccc(Cl)cc2C)N(c2cc(Cl)ccc2C)C3=O)c(OC)n1` (racemic), for which, in series [1], the half-life is 30 min. Moreover, the CLint in series [2] was 47 µL/min/mg. The 50% growth inhibitory concentration (GI50) in the series on SJSA-1 [3] amounted to 26 nM.

What is called half-life is the time needed for the level to fall by half in the phase considered. Usually GI50 stands for the concentration giving 50% growth inhibition. A word on the clearance: it is the volume of plasma or blood freed of the substance per unit of time. As usually defined, the Tmax is the time from dosing to the highest level. The bioavailability is dose-corrected exposure relative to a reference, in per cent.
